In assay [1] the target is human recombinant A1 adenosine receptor (Homo sapiens (Human), UniProt P30542). Put plainly: Adenosine receptor binding, displacement of specific [3H]CCPA binding. As to conditions: [3H]CCPA displacement, CHO cells stably transfected with human recombinant A1 adenosine receptor. The text has this: (§1) The compounds were studied in binding assays to determine their selectivity and potency to the A1, A2a and A3 adenosine receptors.

The target in assay [2] is human recombinant A3 adenosine receptor (Homo sapiens (Human), UniProt P0DMS8). Kind of assay: Adenosine receptor binding, displacement of specific [3H]NECA binding. The note with it: [3H]NECA displacement, CHO cells stably transfected with human recombinant A3 adenosine receptor.
human recombinant A3 adenosine receptor, sequence (P0DMS8 whole entry): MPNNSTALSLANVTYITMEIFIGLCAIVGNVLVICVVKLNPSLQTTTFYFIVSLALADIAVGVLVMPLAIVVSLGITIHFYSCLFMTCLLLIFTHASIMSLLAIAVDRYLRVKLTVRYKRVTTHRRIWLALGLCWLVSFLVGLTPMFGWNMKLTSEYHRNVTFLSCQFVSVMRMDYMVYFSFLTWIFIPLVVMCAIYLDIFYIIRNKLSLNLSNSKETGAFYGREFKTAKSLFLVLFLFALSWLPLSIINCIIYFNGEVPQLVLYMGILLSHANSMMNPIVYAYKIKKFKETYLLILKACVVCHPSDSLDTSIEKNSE
From the text: as §1

The target of assay [3] is human recombinant A2A adenosine receptor (Homo sapiens (Human), UniProt P29274). The assay is described as above. As to conditions: [3H]NECA displacement, CHO cells stably transfected with human recombinant A2A adenosine receptor.
human recombinant A2A adenosine receptor, sequence (P29274 whole entry): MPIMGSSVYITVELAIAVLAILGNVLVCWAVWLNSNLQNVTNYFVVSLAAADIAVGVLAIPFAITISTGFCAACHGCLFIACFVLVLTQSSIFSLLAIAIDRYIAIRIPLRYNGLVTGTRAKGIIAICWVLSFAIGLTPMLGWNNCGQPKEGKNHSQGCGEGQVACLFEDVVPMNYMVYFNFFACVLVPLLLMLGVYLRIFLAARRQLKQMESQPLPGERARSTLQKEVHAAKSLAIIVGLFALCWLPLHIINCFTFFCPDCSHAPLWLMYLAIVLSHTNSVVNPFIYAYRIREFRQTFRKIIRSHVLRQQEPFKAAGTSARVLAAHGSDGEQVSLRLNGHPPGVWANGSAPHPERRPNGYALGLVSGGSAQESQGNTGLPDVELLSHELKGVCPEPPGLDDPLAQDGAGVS
From the text: as §1

Assay [4] relates to ocular normotensive Dutch-Belted rabbits. Put plainly: Changes in intraocular pressure after topical administration to the eye. It is filed as in vivo, rabbit. The note with it: for changes in IOP relative to baseline after dosing (in words): 0-6 hours. As to the method:
The study involved groups of eight rabbits and the rabbits were acclimated for two days before they received a single dose in either the right eye or left eye of the HPCD control. The IOP of the groups of rabbits were recorded at 0, 1, 2, 4 and 6 hours after dosing of the control.

The results in this text go back to patent publication US8501708B2, “Adenosine compounds and their use thereof” (Inotek Pharmaceuticals Corporation, priority 2011, dated 2013).

For orientation: Ki means the dissociation constant of the complex between target and ligand, obtained from inhibition or displacement.

human recombinant A1 adenosine receptor, sequence (P30542 whole entry): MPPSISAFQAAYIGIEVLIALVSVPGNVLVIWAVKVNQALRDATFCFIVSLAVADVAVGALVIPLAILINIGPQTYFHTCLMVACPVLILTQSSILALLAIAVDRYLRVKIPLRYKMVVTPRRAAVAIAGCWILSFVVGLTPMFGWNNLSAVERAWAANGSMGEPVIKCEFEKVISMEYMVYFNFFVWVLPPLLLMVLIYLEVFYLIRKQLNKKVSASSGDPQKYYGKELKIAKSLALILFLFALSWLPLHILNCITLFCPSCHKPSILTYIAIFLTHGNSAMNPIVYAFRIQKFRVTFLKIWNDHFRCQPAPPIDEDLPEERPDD

On to `Cc1ccc(CO[C@H]2CCC[C@@H]2Nc2ncnc3c2ncn3[C@@H]2O[C@H](CO)[C@@H](O)[C@H]2O)cc1` [Compound 3, (2R,3S,4R,5R)-2-(hydroxymethyl)-5-(6-((1S,2S)-2-(4-methylbenzyloxy)cyclopentylamino)-9H-purin-9-yl)tetrahydrofuran-3,4-diol], for which the Ki was 0.029 µM in assay [1], 2.55 µM in assay [2] and 25.4 µM in assay [3].
As to `OC[C@H]1OC(n2cnc3c(NC4CCCCC4OCc4ccccc4)ncnc32)[C@H](O)[C@@H]1O` (stereo partly shown) [Compound 4], the Ki in assay [2] was above 100 µM.
For `OC[C@H]1OC(n2cnc3c(NC4CCCCC4OCc4ccccc4)ncnc32)[C@H](O)[C@@H]1O` (stereo partly shown) [Compound 5], the inhibitory constant (Ki) in assay [2] is above 100 µM.
For `Cc1cccc(CO[C@H]2CCC[C@@H]2Nc2ncnc3c2ncn3[C@@H]2O[C@H](CO)[C@@H](O)[C@H]2O)c1` [Compound 6, (2R,3S,4R,5R)-2-(hydroxymethyl)-5-(6-((1S,2S)-2-(3-methylbenzyloxy)cyclopentylamino)-9H-purin-9-yl)tetrahydrofuran-3,4-diol], the results for the Ki in assay [1], in assay [2] and in assay [3] were 0.00279 µM, 1.35 µM and 5.32 µM, respectively.
The corresponding values for `Cc1ccccc1CO[C@H]1CCC[C@@H]1Nc1ncnc2c1ncn2[C@@H]1O[C@H](CO)[C@@H](O)[C@H]1O` [Compound 7, (2R,3S,4R,5R)-2-(hydroxymethyl)-5-(6-((1S,2S)-2-(2-methylbenzyloxy)cyclopentylamino)-9H-purin-9-yl)tetrahydrofuran-3,4-diol] are 0.0126 µM, 1.57 µM and 7.33 µM.
Regarding `OC[C@H]1O[C@@H](n2cnc3c(N[C@H]4CCC[C@@H]4OCc4cccc(F)c4)ncnc32)[C@H](O)[C@@H]1O` [Compound 8, (2R,3R,4S,5R)-2-(6-((1S,2S)-2-(3-fluorobenzyloxy)cyclopentylamino)-9H-purin-9-yl)-5-(hydroxymethyl)tetrahydrofuran-3,4-diol], the Ki was determined as 1.63 µM in assay [2] and 5.54 µM in assay [3].
The corresponding values for `OC[C@H]1OC(n2cnc3c(NC4CCC[C@@H]4OCc4ccc(F)cc4)ncnc32)[C@H](O)[C@@H]1O` (stereo partly shown) [Compound 9] are 1.87 µM and 11.4 µM.
Turning to `OC[C@H]1O[C@@H](n2cnc3c(N[C@H]4CCC[C@@H]4OCc4cccc(I)c4)ncnc32)[C@H](O)[C@@H]1O` [Compound 11, (2R,3S,4R,5R)-2-(hydroxymethyl)-5-(6-((1S,2S)-2-(3-iodobenzyloxy)cyclopentylamino)-9H-purin-9-yl)tetrahydrofuran-3,4-diol], the inhibition constant Ki in assay [2] stood at 1.29 µM. The “changes in IOP relative to baseline after dosing (in words)” value in assay [4] (topical single dose 200 mcg) is listed as “do not show significant changes in IOP”.
As to `Cc1cccc(CO[C@@H]2CCC[C@H]2Nc2ncnc3c2ncn3[C@@H]2O[C@H](CO)[C@@H](O)[C@H]2O)c1` [Compound 17, (2R,3S,4R,5R)-2-(hydroxymethyl)-5-(6-((1R,2R)-2-(3-methylbenzyloxy)cyclopentylamino)-9H-purin-9-yl)tetrahydrofuran-3,4-diol], the results for the inhibition constant Ki in assay [1], in assay [2] and in assay [3] were 0.00265 µM, 2.62 µM and 3.37 µM, respectively. Further, in assay [4] (topical single dose 200 mcg), the “changes in IOP relative to baseline after dosing (in words)” value is listed as “do not show significant changes in IOP”.
As to `Cc1ccccc1CO[C@@H]1CCC[C@H]1Nc1ncnc2c1ncn2[C@@H]1O[C@H](CO)[C@@H](O)[C@H]1O` [Compound 18, (2R,3S,4R,5R)-2-(hydroxymethyl)-5-(6-((1R,2R)-2-(2-methylbenzyloxy)cyclopentylamino)-9H-purin-9-yl)tetrahydrofuran-3,4-diol], the Ki worked out at 0.00228 µM in assay [1], 5.1 µM in assay [2] and 0.422 µM in assay [3]. In assay [4] (topical single dose 200 mcg), the “return of IOP to baseline levels, time post dosing” value amounted to 6 h. Moreover, the “reduction of IOP” value in assay [4] (topical single dose 200 mcg in HPCD formulation, 2 hours post dosing) was 20%.
Turning to `OC[C@H]1O[C@@H](n2cnc3c(N[C@@H]4CCC[C@H]4OCc4cccc(F)c4)ncnc32)[C@H](O)[C@@H]1O` [Compound 19, (2R,3R,4S,5R)-2-(6-((1R,2R)-2-(3-fluorobenzyloxy)cyclopentylamino)-9H-purin-9-yl)-5-(hydroxymethyl)tetrahydrofuran-3,4-diol], the results for the Ki in assay [2] and in assay [3] were 4.04 µM and 2.55 µM, respectively.
The corresponding values for `OC[C@H]1O[C@@H](n2cnc3c(N[C@@H]4CCC[C@H]4OCc4ccc(F)cc4)ncnc32)[C@H](O)[C@@H]1O` [Compound 20, (2R,3R,4S,5R)-2-(6-((1R,2R)-2-(4-fluorobenzyloxy)cyclopentylamino)-9H-purin-9-yl)-5-(hydroxymethyl)tetrahydrofuran-3,4-diol] are 3.71 µM and 3.78 µM.
`OC[C@H]1O[C@@H](n2cnc3c(N[C@@H]4CCC[C@H]4OCc4cccc(I)c4)ncnc32)[C@H](O)[C@@H]1O` [Compound 22, (2R,3S,4R,5R)-2-(hydroxymethyl)-5-(6-((1R,2R)-2-(3-iodobenzyloxy)cyclopentylamino)-9H-purin-9-yl)tetrahydrofuran-3,4-diol]: the Ki in assay [2] was 0.551 µM.
